pEC50: −log10 of the molar value.
Tested on: recombinant NL4-3 virus (Renilla luciferase in nef, Gag P373S; NLRluc) in MT-2 cells
Assay: HIV Cell Culture Assay (luciferase reporter, antiviral activity)
Assay type: cell-based
Conditions: Renilla, NL43, MT-2 cells infected for 4-5 days with NLRluc recombinants, serial dilutions of the inhibitor
Method: HIV Cell Culture Assay—MT-2 cells and 293T cells were obtained from the NIH AIDS Research and Reference Reagent Program. MT-2 cells were propagated in RPMI 1640 media supplemented with 10% heat inactivated fetal bovine serum, […]. The 293T cells were propagated in DMEM media supplemented with 10% heat inactivated fetal bovine serum (FBS), 100 units/ml penicillin G and 100 μg/ml streptomycin. The proviral DNA clone of NL4-3 was obtained from the NIH AIDS Research and Reference Reagent Program. A recombinant NL4-3 virus, in which a section of the nef gene from NL4-3 was replaced with the Renilla luciferase gene, was used as a reference virus. In addition, residue Gag P373 was converted to P373S. Briefly, the recombinant virus was prepared by transfection of the altered proviral clone of NL4-3. Transfections were performed in 293T cells using LipofectAMINE PLUS from Invitrogen (Carlsbad, Calif.), according to manufacturer's instruction. The virus was titered in MT-2 cells using luciferase enzyme activity as a marker. Luciferase was quantitated using the Dual Luciferase kit from Promega (Madison, Wis.), with modifications to the manufacturer's protocol. The diluted Passive Lysis solution was pre-mixed with the re-suspended Luciferase Assay Reagent and the re-suspended Stop & Glo Substrate (2:1:1 ratio). Fifty (50) μL of the mixture was added to each aspirated well on assay plates and luciferase activity was measured immediately on a Wallac TriLux (Perkin-Elmer). Antiviral activities of inhibitors toward the recombinant virus were quantified by measuring luciferase activity in cells infected for 4-5 days with NLRluc recombinants in the presence serial dilutions of the inhibitor.

How did the pEC50 turn out when `C=C(C)[C@@H]1CC[C@]2(NCCN3CCS(=O)(=O)CC3)CC[C@]3(C)[C@H](CC[C@@H]4[C@@]5(C)CC=C(CCC(C)(C)CC(=O)NC#N)C(C)(C)[C@@H]5CC[C@]43C)[C@@H]12` [Example 14, N-cyano-5-((1R,3aS,5aR,5bR,7aR,11aS,11bR,13aR,13bR)-3a-((2-(1,1-dioxidothiomorpholino)ethyl)amino)-5a,5b,8,8,11a-pentamethyl-1-(prop-1-en-2-yl)-2,3,3a,4,5,5a,5b,6,7,7a,8,11,11a,11b,12,13,13a,13b-octadecahydro-1H-cyclopenta[a]chrysen-9-yl)-3,3-dimethylpentanamide] was run?
The pEC50 was 8.33.

How did the pEC50 turn out when `C=C(C)[C@@H]1CC[C@]2(NCCN3CCS(=O)(=O)CC3)CC[C@]3(C)[C@H](CC[C@@H]4[C@@]5(C)CC=C(CCC(C)(C)CC(=O)NS(C)(=O)=O)C(C)(C)[C@@H]5CC[C@]43C)[C@@H]12` [Example 15, 5-((1R,3aS,5aR,5bR,7aR,11aS,11bR,13aR,13bR)-3a-((2-(1,1-dioxidothiomorpholino)ethyl)amino)-5a,5b,8,8,11a-pentamethyl-1-(prop-1-en-2-yl)-2,3,3a,4,5,5a,5b,6,7,7a,8,11,11a,11b,12,13,13a,13b-octadecahydro-1H-cyclopenta[a]chrysen-9-yl)-3,3-dimethyl-N-(methylsulfonyl)pentanamide] was run?
The pEC50 was 8.80.

How did the pEC50 turn out when `CC(C)[C@@H]1CC[C@]2(NCCN3CCS(=O)(=O)CC3)CC[C@]3(C)[C@H](CC[C@@H]4[C@@]5(C)CCC(CCCCC(=O)O)C(C)(C)[C@@H]5CC[C@]43C)[C@@H]12` (stereo partly drawn) [Example 16, 5-((1S,3aS,5aR,5bR,7aS,11aS,11bR,13aR,13bR)-3a-((2-(1,1-dioxidothiomorpholino)ethyl)amino)-1-isopropyl-5a,5b,8,8,11a-pentamethylicosahydro-1H-cyclopenta[a]chrysen-9-yl)pentanoic acid] was run?
Its pEC50 is 9.00.

`CC(C)[C@@H]1CC[C@]2(NCCN3CCS(=O)(=O)CC3)CC[C@]3(C)[C@H](CC[C@@H]4[C@@]5(C)CCC(CCCC(C)(C)C(=O)O)C(C)(C)[C@@H]5CC[C@]43C)[C@@H]12` (stereo partly drawn) [Example 17, 5-((1S,3aS,5aR,5bR,7aS,11aS,11bR,13aR,13bR)-3a-((2-(1,1-dioxidothiomorpholino)ethyl)amino)-1-isopropyl-5a,5b,8,8,11a-pentamethylicosahydro-1H-cyclopenta[a]chrysen-9-yl)-2,2-dimethylpentanoic acid] was tested. Which pEC50 did it give?
Its pEC50 is 8.14.

`C=C(C)[C@@H]1CC[C@]2(NCCN3CCC(S(C)(=O)=O)CC3)CC[C@]3(C)[C@H](CC[C@@H]4[C@@]5(C)CC=C(CCC(C)(C)CC(=O)O)C(C)(C)[C@@H]5CC[C@]43C)[C@@H]12` [Example 18, 3,3-dimethyl-5-((1R,3aS,5aR,5bR,7aR,11aS,11bR,13aR,13bR)-5a,5b,8,8,11a-pentamethyl-3a-((2-(4-(methylsulfonyl)piperidin-1-yl)ethyl)amino)-1-(prop-1-en-2-yl)-2,3,3a,4,5,5a,5b,6,7,7a,8,11,11a,11b,12,13,13a,13b-octadecahydro-1H-cyclopenta[a]chrysen-9-yl)pentanoic acid] was tested. Which pEC50 did it give?
The pEC50 was 8.96.

`C=C(C)[C@@H]1CC[C@]2(C(=O)O)CC[C@]3(C)[C@H](CC[C@@H]4[C@@]5(C)CC=C(CCC(=O)O)C(C)(C)[C@@H]5CC[C@]43C)[C@@H]12` [Example 19, (1R,3aS,5aR,5bR,7aR,11aS,13aR,13bR)-9-(2-carboxyethyl)-5a,5b,8,8,11a-pentamethyl-1-(prop-1-en-2-yl)-2,3,3a,4,5,5a,5b,6,7,7a,8,11,11a,11b,12,13,13a,13b-octadecahydro-1H-cyclopenta[a]chrysene-3a-carboxylic acid] was tested. Which pEC50 did it give?
Its pEC50 is 6.33.

How did the pEC50 turn out when `C=C(C)[C@@H]1CC[C@]2(NCCN3CCS(=O)(=O)CC3)CC[C@]3(C)[C@H](CC[C@@H]4[C@@]5(C)CC=C(C=C6CCC(C(=O)O)CC6)C(C)(C)[C@@H]5CC[C@]43C)[C@@H]12` (stereo partly drawn) [Example A1, 4-(((1R,3aS,5aR,5bR,7aR,11aS,11bR,13aR,13bR)-3a-((2-(1,1-dioxidothiomorpholino)ethyl)amino)-5a,5b,8,8,11a-pentamethyl-1-(prop-1-en-2-yl)-2,3,3a,4,5,5a,5b,6,7,7a,8,11,11a,11b,12,13,13a,13b-octadecahydro-1H-cyclopenta[a]chrysen-9-yl)methylene)cyclohexanecarboxylic acid] was run?
The pEC50 was 8.45.

With `C=C(C)[C@@H]1CC[C@]2(NCCN3CCS(=O)(=O)CC3)CC[C@]3(C)[C@H](CC[C@@H]4[C@@]5(C)CC=C(/C=C/c6ccc(C(=O)O)cc6)C(C)(C)[C@@H]5CC[C@]43C)[C@@H]12` [Example B1, 4-((E)-2-((1R,3aS,5aR,5bR,7aR,11aS,11bR,13aR,13bR)-3a-((2-(1,1-dioxidothiomorpholino)ethyl)amino)-5a,5b,8,8,11a-pentamethyl-1-(prop-1-en-2-yl)-2,3,3a,4,5,5a,5b,6,7,7a,8,11,11a,11b,12,13,13a,13b-octadecahydro-1H-cyclopenta[a]chrysen-9-yl)vinyl)benzoic acid] as the compound, how does the pEC50 read?
The pEC50 was 8.00.

`C=C(C)[C@@H]1CC[C@]2(NCCN3CCS(=O)(=O)CC3)CC[C@]3(C)[C@H](CC[C@@H]4[C@@]5(C)CC=C(/C=C/C6CC6(NC(=O)OC(C)(C)C)C(=O)O)C(C)(C)[C@@H]5CC[C@]43C)[C@@H]12` (stereo partly drawn) [Example B2, 1-((tert-butoxycarbonyl)amino)-2-((E)-2-((1R,3aS,5aR,5bR,7aR,11aS,11bR,13aR,13bR)-3a-((2-(1,1-dioxidothiomorpholino)ethyl)amino)-5a,5b,8,8,11a-pentamethyl-1-(prop-1-en-2-yl)-2,3,3a,4,5,5a,5b,6,7,7a,8,11,11a,11b,12,13,13a,13b-octadecahydro-1H-cyclopenta[a]chrysen-9-yl)vinyl)cyclopropanecarboxylic acid] was tested. Which pEC50 did it give?
The pEC50 was 7.40.

How did the pEC50 turn out when `C=C(C)[C@@H]1CC[C@]2(NCCN3CCC(S(C)(=O)=O)CC3)CC[C@]3(C)[C@H](CC[C@@H]4[C@@]5(C)CC=C(C=C6CC(C(=O)O)C6)C(C)(C)[C@@H]5CC[C@]43C)[C@@H]12` (stereo partly drawn) [Example B4, 3-(((1R,3aS,5aR,5bR,7aR,11aS,11bR,13aR,13bR)-5a,5b,8,8,11a-pentamethyl-3a-((2-(4-(methylsulfonyl)piperidin-1-yl)ethyl)amino)-1-(prop-1-en-2-yl)-2,3,3a,4,5,5a,5b,6,7,7a,8,11,11a,11b,12,13,13a,13b-octadecahydro-1H-cyclopenta[a]chrysen-9-yl)methylene)cyclobutanecarboxylic acid] was run?
Its pEC50 is 9.22.

Source: patent US9249180B2, “C-3 alkyl and alkenyl modified betulinic acid derivatives” (priority 2013, dated 2016)
